{"source": "patent US20090227795A1", "about": "“TARGET MOLECULES OF PLADIENOLIDES, COMPOUNDS BINDING TO SUCH TARGET MOLECULES, AND SCREENING METHOD THEREOF” (Eisai R & D Management Co., Ltd., priority 2006, published 2009)", "key": {"[1]": {"test_system": "HeLa cells", "assay": "Observation of intracellular localization of fluorescent probe and competition assay (microscopy, anti-SC-35 staining)", "type": "cell-based", "conditions": "for fluorescence intensity derived from the fluorescent probe after competition (rank order): 1 μM competitor added 1 hour before 1 μM fluorescent probe, lower intensity = stronger competition", "description": "1 μM of the fluorescent probe produced in Example A2 was added to HeLa cells, and the obtained mixture was incubated at 37° C. in an incubator for 1 hour. Thereafter, the medium was removed, and the remaining culture was further cultured for 1 hour in a fresh medium without probes and non-specifically adsorbed compounds were washed. The medium was removed again. The remaining culture was then washed with PBS. Thereafter, the cells were immobilized in 3.7% formaldehyde in PBS.\nThe immobilized cells were well washed with PBS, and were then permeabilized with 0.5% or 1% Triton X-100 in PBS. Thereafter, blocking was carried out with FBS or a blocking solution, and a primary antibody (anti-SC-35 monoclonal antibody; Sigma; S4045) was added to the resultant, so as to carry out a reaction. The reaction product was washed with PBS, and blocking was carried out again with FBS or a blocking solution. A fluorescent-labeled secondary antibody (TexasRed-labeled; Jackson) was added to the resultant, so as to carry out a reaction. The labeled sample was rapidly rinsed with distilled water, and it was then encapsulated into a Prolong antifade reagent (Molecular Probes). Localization of the fluorescent probe and the anti-SC-35 antibody was observed under a fluorescence microscope (DeltaVision, Applied Precision, Inc.) or a confocal microscope (LSM510; Carl Zeiss).\nFurthermore, pladienolides or the derivatives thereof were used in the aforementioned experimental operations to carry out a competition assay. That is, before addition of the fluorescent probe, 1 μM pladienolides or the derivatives thereof were added to the cells, and the obtained mixture was then cultured for 1 hour. Thereafter, the same above operations for immobilization and staining were performed on the culture, followed by observation with a microscope, so as to confirm localization of the fluorescent probe."}, "[2]": {"target": "T1, SAP130 (Homo sapiens, UniProt O75533+Q15393+Q7RTV0)", "T1 construct": "expressed in transfected cells", "assay": "Detection of band shift using GFP-fused SAP145 or GFP-fused SAP130 proteins with photoaffinity biotin probe", "type": "binding", "conditions": "1.5 μM probe, HeLa cells stably expressing GFP-SAP145 or GFP-SAP130, band shift", "description": "SAP145 and SAP130, which were considered to be target molecules, were detected in almost the same position on SDS-PAGE. Thus, strains stably expressing a GFP-fused SAP145 or GFP-fused SAP 130 protein were prepared, and an experiment was then […] out using a photoaffinity biotin probe.\nA 1.5 μM photoaffinity biotin probe was added to HeLa cells stably expressing GFP-SAP145, and the obtained mixture was then cultured for 1 hour. After washing the cells with PBS, M-PER (PIERCE) was then added thereto, followed by stirring at 4° C. for 1 hour. Thereafter, 1/10 vol. of 1.5 M NaCl-0.5% Tween 20 solution was added to the reaction solution, and the obtained mixture was then treated with a vortex (10 sec.×3). The resultant was centrifuged at 15,000 rpm at 4° C. for 5 minutes (TOMY MX-15). The thus obtained supernatant was filtrated with a 0.45-μm membrane, and the filtrate was used in the following immunoprecipitation experiment. […]\nMoreover, using the same samples. SAP145 and SAP130 were detected with the SAP145 antibody and the SAP130 antibody, respectively.\nFurthermore, an agarose resin prepared from probe-untreated cells was treated with a probe in the aforementioned experimental operations. Thereafter, UV irradiation and elution of a protein were carried out by the same operations as above, and it was examined whether or not the same band was detected in the obtained sample. […]"}, "[3]": {"target": "T2, SAP145 or SAP130 (Homo sapiens, UniProt O75533+Q15393+Q7RTV0)", "T2 construct": "endogenous in cells; host or cells: MDA-MB-468 (nuclear fraction, immunoprecipitate)", "assay": "Detection of bound protein by treatment with photoaffinity biotin probe (immunoprecipitation, UV crosslinking, streptavidin-HRP)", "type": "binding", "conditions": "1.5 μM probe, MDA-MB-468 2000 g-pellet, all antibodies, SDS-PAGE", "description": "2000 g-pellet was prepared from MDA-MB-468 cells by the method described in Example B1. This pellet was suspended in a CSK buffer (300 mM sucrose, 100 mM NaCl, 3 mM MgCl2, 10 mM PIPES, pH=7.0, protease inhibitor cocktail), and the obtained suspension was then treated with the 1.5 μM photoaffinity biotin probe synthesized in Example A3. The suspension was left at rest at 4° C. for 1 hour, and it was then centrifuged at 2000 g at 4° C. for 10 minutes. The supernatant was removed, and a nuclear fraction was then prepared from the obtained precipitate by the same method as that described in Example B1. Thereafter, an immunoprecipitation solution was prepared by the sable method as that described in Example B4.\nUV (365 nm and 302 nm) was applied to the obtained immunoprecipitate (agarose resin), and a crosslinking reaction was carried out. An SDS […] buffer was added to the reaction product, and the obtained mixture was then stirred with a vortex, followed by boiling at 99° C. for 10 minutes, so as to elute the immunoprecipitated proteins. The eluant was subjected to SDS-PAGE and blotting onto a PVDF membrane in accordance with common methods. Thereafter, the resultant was treated with streptavidin-HRP, so as to detect probe-bound proteins. […]"}, "[4]": {"test_system": "human breast cancer cells MDA-MB-468", "assay": "Intracellular distribution of tritium probe compound (cell fractionation, cold inhibition, charcoal assay)", "type": "cell-based", "description": "The tritiated probe compound produced in Example A1 was added to human breast cancer cells MDA-MB-468 (ATCC HTB-132) cultured on a 15-cm dish (>80% confluent), resulting in a concentration of 3 to 30 nM. The obtained mixture was then cultured in an incubator at 37° C. for 1 hour. After removing the medium, the culture was then washed with a Hanks' balanced salt solution (10 ml×2). Then, 3 ml of a 10% glycerol hypotonic buffer (10% glycerol, 20 mM NaCl, 1 mM EDTA, 10 mM Tris-HCl, pH=7.8, protease inhibitor cocktail) was added to the resultant. The obtained mixture was left at rest for a while, and the cells were then recovered using a cell scraper. A cell lysate was prepared using a Dounce homogenizer.\nThe lysate was centrifuged at 2,000 g at 4° C. for 10 minutes, so as to obtain a supernatant (2000 g-sup.) and a precipitate (2000 g-pellet). 2000 g-sup. was further centrifuged at 100,000 g at 4° C. for 60 minutes, so as to obtain a cytosol fraction as a supernatant, and a membrane fraction as a precipitate. 2000 g-pellet was suspended in 0.5 M NaCl, and the suspension was then left at rest for 30 minutes under cooling on ice, so as to elute a nuclear protein. Thereafter, centrifugation was carried out at 3,000 g at 4° C. for 10 minutes, so as to obtain a nuclear fraction as a supernatant, and a nuclear pellet as a precipitate.\nThe radioactivity of a tritium probe existing in each fraction was measured by the following method. That is, each of the cytosol fraction and the nuclear fraction was uniformly mixed with Hionic-Fluor (Perkin Elmer). On the other hand, each of the membrane fraction and the nuclear pellet was dissolved in Soluene-350 (Packard) (1 ml), and the obtained solution was then mixed with Hionic-Fluor. The radioactivity of each mixture was measured with a liquid scintillation counter.\nAt the same time, a radioisotope-non-labeled-pladienolide was used to carry out a cold inhibition experiment. That is, the cells were treated with a pladienolide having a concentration (0.15 to 1.5 μM) that was 50 times higher than the tritium probe treatment concentration, and they were then cultured at 37° C. in an incubator for 1 hour. Thereafter, the culture was treated with a tritium probe, and each fraction was prepared. Then, the radioactivity thereof was measured.\nThat is, 1/10 vol. (volume ratio) of a 10% activated charcoal suspension was added to each of the cytosol fraction and the nuclear fraction, followed by a treatment with a vortex for several seconds. The resultant was centrifuged at 15,000 rpm at 4° C. for 5 minutes (TOMY mini MX-15), and the radioactivity of the supernatant was measured in the same manner as that described above."}, "[5]": {"target": "T3, U2 snRNP complex (Homo sapiens, UniProt O75533+Q15393+Q7RTV0)", "T3 construct": "endogenous in cells; host or cells: MDA-MB-468", "assay": "Immunoprecipitation experiment of nuclear fraction prepared from tritium probe-treated cells", "type": "binding", "conditions": "30 nM probe, MDA-MB-468 nuclear fraction, TMG, U1A/U2B″, SM BB′ & D1, SAP155, SAP145, cyclin E antibodies", "description": "MDA-MB-468 cells were cultured in the presence of a 30 nM tritium probe for 1 hour. Thereafter, a nuclear fraction was prepared by the same method as that described in Example B1. A dilution buffer was added to the nuclear fraction to a final concentration of 0.15 M NaCl, 0.05% CA-630 and 40 mM tris-HCl (pH=7.5), so as to prepare an immunoprecipitation solution.\nTo this solution, each of antibodies reacting with splicing factors, transcriptional factors, or molecules associated with such factors were added to a concentration of 1 μg/ml. The obtained mixture was slowly stirred for approximately 12 hours in a low-temperature chamber of 4° C., using a sample rotator. Thereafter, 20 μl of 50% Protein A/G-agarose conjugate suspension was added to the reaction solution, and the obtained mixture was further stirred for 2 hours in the low-temperature chamber.\nThe agarose resin was recovered, and it was then washed with a washing solution (0.15 M NaCl, 0.05% CA-630, 20 mM tris-HCl, pH=7.5). An SDS sample buffer was added to the resultant solution, and the obtained mixture was then stirred with a vortex. The reaction solution was boiled at 99° C. for 10 minutes, so as to elute the immunoprecipitated protein. The eluant was mixed homogeneously with Hionic-Fluor, and the radioactivity of a tritium probe existing in the eluant was then measured with a liquid scintillation counter."}}, "data": [{"compound": "CCC(O)C(C)C1OC1CC(C)C=CC=C(C)C1OC(=O)CC(O)CCC(C)(O)C(OC(=O)NCCOCCOCCNC(=O)CCCCC2=[N+]3C(=Cc4c(C)cc(C)n4[B-]3(F)F)C=C2)C=CC1C", "note": "(centres unmarked) [fluorescent probe, 7-(N-(2-(2-(2-(N-(5-(5,5-difluoro-7,9-dimethyl-5H-dipyrrolo[1,2-c:2′,1′-f][1,3,2]diazaborinin-4-ium-5-uid-3-yl)pentanoyl)amino)ethoxy)ethoxy)ethyl)carbamoyloxy)-3,6,21-trihydroxy-6,10,12,16,20-pentamethyl-18,19-epoxytricosa-8,12,14-trien-11-olide]", "values": [{"measurement": "intracellular localization of fluorescent probe", "setting": "[1]; 1 μM probe, 1 hour, co-staining with anti-SC-35 antibody", "value": "mainly localized in granular structures in the nuclei"}]}, {"compound": "CCC(O)C(C)C1OC1CC(C)/C=C/C=C(\\C)C1OC(=O)CC(O)CCC(C)(O)C(OC(=O)NCCCC[C@H](NC(=O)c2ccc(C3(C(F)(F)F)NN3)cc2)C(=O)N(C)CCN(C)C(=O)CCCC[C@@H]2SC[C@@H]3NC(=O)N[C@@H]32)/C=C/C1C", "note": "(stereo partly drawn) [photoaffinity biotin probe, (8E,2E,14E)-3,621-trihydroxy-6,10,12,16,20-pentamethyl-7-(N-((5S)-6-(N-methyl-N-(2-(N-methyl-N-(5-((3aS,4S,6aR)-2-oxohexahydro-1H-thieno[3,4-d]imidazol-4-yl)pentanoyl)amino)ethyl)amino)-6-oxo-5-(N-(4-(3-(trifluoromethyl)-3H-diaziren-3-yl)benzoyl)amino)hexyl)carbamoyloxy)-18,19-epoxytricosa-8,12,14-trien-11-olide]", "values": [{"measurement": "protein to which the probe has bound", "setting": "[2]", "value": "not SAP145 but SAP130"}, {"measurement": "position of band of probe-bound protein", "setting": "[3]", "value": "130-140 kDa"}]}, {"compound": "CCC(O)C(C)C1OC1CC(C)/C=C/C=C(\\C)C1OC(=O)CC(O)CCC(C)(O)C(O)/C=C/C1C", "note": "(centres unmarked) [pladienolide A]", "values": [{"measurement": "fluorescence intensity derived from the fluorescent probe after competition (rank order)", "setting": "[1]", "value": "pladienolide A >non-labeled tritium probe compound >pladienolides B and D"}]}, {"compound": "CCC(O)C(C)C1OC1CC(C)/C=C/C=C(\\C)C1OC(=O)CC(O)CCC(C)(O)C(OC(C)=O)/C=C/C1C", "note": "(centres unmarked) [pladienolide B, reference compound]", "values": [{"measurement": "radioactivity of tritium probe after pre-treatment with non-labeled pladienolide (cold inhibition)", "setting": "[4]; pre-treatment at 50 times the tritium probe concentration (0.15 to 1.5 μM), 1 hour", "value": "almost completely disappeared"}, {"measurement": "fluorescence intensity derived from the fluorescent probe after competition (rank order)", "setting": "[1]", "value": "pladienolide A >non-labeled tritium probe compound >pladienolides B and D"}]}, {"compound": "(8E,12E,14E)-7-(N—[G-^3H]ethylcarbamoyloxy)-3,6,21-trihydroxy-6,10,12,16,20-pentamethyl-18,19-epoxytricosa-8,12,14-trien-11-olide [tritium probe]", "values": [{"measurement": "radioactivity of tritium probe existing in each cell fraction", "setting": "[4]; MDA-MB-468 cells, probe 3 to 30 nM, 1 hour, cytosol, membrane, nuclear fraction, nuclear pellet", "value": "highest radioactivity of the tritium probe was detected in the nuclear fraction"}, {"measurement": "radioactivity of the cytosol fraction after treatment with activated charcoal", "setting": "[4]; charcoal assay, cytosol fraction", "value": "almost all the radioactivity of the cytosol fraction disappeared"}, {"measurement": "radioactivity in the nuclear fraction after treatment with activated charcoal", "setting": "[4]; charcoal assay, nuclear fraction", "value": "did not disappear"}, {"measurement": "radioactivity of tritium probe co-immunoprecipitated with antibodies", "setting": "[5]", "value": "specific radioactivity was observed"}]}, {"compound": "pladienolide D", "values": [{"measurement": "fluorescence intensity derived from the fluorescent probe after competition (rank order)", "setting": "[1]", "value": "pladienolide A >non-labeled tritium probe compound >pladienolides B and D"}]}]}
